Measured values published in PubChem BioAssay (NCI).
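All cell lines were grown in 96-well plates and treated with compound for 48 hours. At the GI50, growth is halved. TGI: total growth inhibition.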

Key:
Experiment in all cases: growth of human tumour cells (NCI), 48 h
[1] = test system: SF-268 CNS
[2] = test system: HL-60(TB) leukemia
[3] = test system: CAKI-1 renal
[4] = test system: SR leukemia
[5] = test system: OVCAR-3 ovarian
[6] = test system: OVCAR-5 ovarian
[7] = test system: U251 CNS
[8] = test system: RXF 393 renal
[9] = test system: PC-3 prostate
[10] = test system: A549 NSCLC
[11] = test system: HCT-116 colon
[12] = test system: 786-0 renal
[13] = test system: RPMI-8226 leukemia
[14] = test system: K-562 leukemia
[15] = test system: HS 578T breast
[16] = test system: SK-MEL-28 melanoma
[17] = test system: CCRF-CEM leukemia
[18] = test system: UACC-62 melanoma
[19] = test system: M14 melanoma
[20] = test system: SF-295 CNS
[21] = test system: SN12C renal
[22] = test system: UO-31 renal
[23] = test system: COLO 205 colon
[24] = test system: MCF7 breast
[25] = test system: SF-539 CNS
[26] = test system: NCI/ADR-RES ovarian
[27] = test system: LOX IMVI melanoma
[28] = test system: KM12 colon
[29] = test system: SK-MEL-5 melanoma
[30] = test system: HT29 colon
[31] = test system: SNB-19 CNS
[32] = test system: A498 renal
[33] = test system: MALME-3M melanoma
[34] = test system: HCT-15 colon
[35] = test system: MDA-MB-435
[36] = test system: UACC-257 melanoma
[37] = test system: T-47D breast
[38] = test system: NCI-H460 lung
[39] = test system: NCI-H23 lung
[40] = test system: TK-10 renal
[41] = test system: OVCAR-8 ovarian
[42] = test system: MDA-MB-231 breast
[43] = test system: NCI-H522 lung
[44] = test system: EKVX NSCLC
[45] = test system: HOP-62 NSCLC
[46] = test system: HCC-2998 colon
[47] = test system: IGROV1 ovarian
[48] = test system: BT-549 breast
[49] = test system: SK-MEL-2 melanoma
[50] = test system: ACHN renal
[51] = test system: SW-620 colon
[52] = test system: DU-145 prostate
[53] = test system: MOLT-4 leukemia
[54] = test system: SK-OV-3 ovarian
[55] = test system: HOP-92 NSCLC
[56] = test system: NCI-H226 lung
[57] = test system: OVCAR-4 ovarian
[58] = test system: SNB-75 CNS

`O=C(Oc1c(I)ccccc1=O)c1ccc([N+](=O)[O-])cc1` gave a TGI [1] of 39.8 µM, a TGI [2] of 46.5 µM and a TGI [3] of 55.1 µM. The TGI [4] was 24.2 µM, the TGI [5] was 40.1 µM and the TGI [6] was over 100 µM. The TGI [7] was 57.9 µM, the TGI [8] was 21.7 µM and the TGI [9] was 75.1 µM. For the same compound, the TGI [10] was 63.2 µM, the TGI [11] was over 100 µM and the TGI [12] was over 100 µM. The TGI [13] was 88 µM, the TGI [14] was 61.9 µM and the TGI [15] was 68.2 µM. The TGI [16] was 21.7 µM, the TGI [17] was over 100 µM and the TGI [18] was 51 µM. For the same compound, the TGI [19] was 73.3 µM, the TGI [20] was 62.1 µM and the TGI [21] was 67.9 µM. For the same compound, the TGI [22] was 68.9 µM, the TGI [23] was 27.8 µM and the TGI [24] was 35.5 µM. It also gave a TGI [25] of 37.6 µM, a TGI [26] of over 100 µM and a TGI [27] of 83.2 µM. For the same compound, the TGI [28] was 35.6 µM, the TGI [29] was 13.6 µM and the TGI [30] was 24.8 µM. It also gave a TGI [31] of 46.5 µM, a TGI [32] of 17 µM and a TGI [33] of 30.7 µM. For the same compound, the TGI [34] was 31.7 µM, the TGI [35] was 42.4 µM and the TGI [36] was 35.1 µM. For the same compound, the TGI [37] was 1.33 µM, the TGI [38] was 23.5 µM and the TGI [39] was 99.6 µM. For the same compound, the TGI [40] was over 100 µM, the TGI [41] was 65.1 µM and the TGI [42] was 87.7 µM. It also gave a TGI [43] of 36.7 µM, a TGI [44] of 28.3 µM and a TGI [45] of over 100 µM. For the same compound, the TGI [46] was 49.5 µM, the TGI [47] was 29.2 µM and the TGI [48] was 41.8 µM. For the same compound, the TGI [49] was 45.1 µM, the TGI [50] was 68.5 µM and the TGI [51] was 83.6 µM. The TGI [52] was 26.8 µM.
Compound `COc1cccc(-c2nn(-c3ccccc3)cc2-c2ccnc(NCCNC(=O)Nc3ccc(Cl)c(Cl)c3)c2)c1` has a GI50 [1] of 2.43 µM, a TGI [1] of 10.3 µM and a GI50 [2] of 2.43 µM. It also gave a TGI [2] of 6.85 µM, a GI50 [3] of 2.79 µM and a TGI [3] of 11.1 µM. For the same compound, the GI50 [4] was 1.51 µM, the TGI [4] was 6.02 µM and the GI50 [5] was 2.59 µM. It also gave a TGI [5] of 8.2 µM, a GI50 [6] of 2.25 µM and a TGI [6] of 10.1 µM. The GI50 [7] was 2.65 µM, the TGI [7] was 7.73 µM and the GI50 [8] was 1.2 µM. It also gave a TGI [8] of 3.15 µM, a GI50 [9] of 2.5 µM and a TGI [9] of 8.36 µM. It also gave a GI50 [10] of 3.38 µM, a TGI [10] of 12.5 µM and a GI50 [11] of 2.17 µM. For the same compound, the TGI [11] was 5.33 µM, the GI50 [12] was 1.55 µM and the TGI [12] was 3.28 µM. The GI50 [13] was 2.6 µM, the TGI [13] was 7.52 µM and the GI50 [14] was 3.09 µM. For the same compound, the TGI [14] was 11.1 µM, the GI50 [15] was 1.96 µM and the TGI [15] was 5.19 µM. It also gave a GI50 [16] of 2.03 µM, a TGI [16] of 4.59 µM and a GI50 [18] of 1.84 µM. It also gave a TGI [18] of 4.51 µM, a GI50 [53] of 2.31 µM and a TGI [53] of 7.11 µM. For the same compound, the GI50 [54] was 4.06 µM, the TGI [54] was 14.4 µM and the GI50 [19] was 1.67 µM. The TGI [19] was 4.05 µM, the GI50 [20] was 2.41 µM and the TGI [20] was 7.28 µM. It also gave a GI50 [21] of 2.39 µM, a TGI [21] of 5.96 µM and a GI50 [22] of 1.44 µM. The TGI [22] was 5.03 µM, the GI50 [23] was 2.07 µM and the TGI [23] was 4.44 µM. It also gave a GI50 [24] of 2.46 µM, a TGI [24] of 11.7 µM and a GI50 [25] of 1.93 µM. The TGI [25] was 4.17 µM, the GI50 [26] was 2.08 µM and the TGI [26] was 5.64 µM. The GI50 [55] was 1.37 µM, the TGI [55] was 5.48 µM and the GI50 [27] was 1.66 µM. The TGI [27] was 3.21 µM, the GI50 [28] was 2.27 µM and the TGI [28] was 5.79 µM. For the same compound, the GI50 [29] was 1.95 µM, the TGI [29] was 3.71 µM and the GI50 [30] was 1.91 µM. The TGI [30] was 5.39 µM, the GI50 [31] was 2.63 µM and the TGI [31] was 9.8 µM. For the same compound, the GI50 [33] was 1.89 µM, the TGI [33] was 4.66 µM and the GI50 [34] was 3 µM. For the same compound, the TGI [34] was 10.7 µM, the GI50 [56] was 3.63 µM and the TGI [56] was 18.7 µM. It also gave a GI50 [35] of 1.86 µM, a TGI [35] of 4.26 µM and a GI50 [36] of 3.63 µM. It also gave a TGI [36] of 20.3 µM, a GI50 [37] of 3.85 µM and a TGI [37] of 24.7 µM. For the same compound, the GI50 [38] was 1.88 µM, the TGI [38] was 4.33 µM and the GI50 [39] was 2.46 µM. The TGI [39] was 11.6 µM, the GI50 [40] was 4.78 µM and the TGI [40] was 18.9 µM. The GI50 [41] was 2.98 µM, the TGI [41] was 11.2 µM and the GI50 [42] was 2.04 µM. The TGI [42] was 5.04 µM, the GI50 [43] was 2.18 µM and the TGI [43] was 5.96 µM. The GI50 [44] was 2.48 µM, the TGI [44] was 16.7 µM and the GI50 [45] was 3.39 µM. The TGI [45] was 12.7 µM, the GI50 [46] was 1.88 µM and the TGI [46] was 3.78 µM. The GI50 [47] was 3.61 µM, the TGI [47] was 15.6 µM and the GI50 [48] was 2.94 µM. For the same compound, the TGI [48] was 10.4 µM, the GI50 [49] was 2.09 µM and the TGI [49] was 5.17 µM. For the same compound, the GI50 [57] was 3.25 µM, the TGI [57] was 16.2 µM and the GI50 [58] was 1.43 µM. The TGI [58] was 5.96 µM, the GI50 [50] was 2.79 µM and the TGI [50] was 10.2 µM. The GI50 [51] was 2.7 µM, the TGI [51] was 11.1 µM and the GI50 [52] was 3.52 µM. For the same compound, the TGI [52] was 12.7 µM.
